Measurements as given in patent US10954276B2, “Enzyme-based protein separation and enrichment from soy meal, wheat meal, and other protein-rich materials derived from plant seeds, fruits and other biomass” (THE UNIVERSITY OF AKRON, priority 2012, dated 2021).
In brackets after ≈: the same amount, converted by molar mass.

How the values were obtained:
Debaryomyces hansenii = assay: MIC study of benzoic acid for the growth of Debaryomyces hansenii; assay type: cell-based
Experimental: D. hansenii was inoculated first in a pre-culture medium with the following medium composition (g/L): Glucose 10, Peptone 5, Malt extract 3 and yeast extract 3. A pre-culture was performed in a 250 ml Erlenmeyer flask with 50 ml culture volume in an orbital shaker at 250 rpm and at a temperature of 30° C. After 36 hours, 5% inoculum is transferred into systems with the different benzoic acid concentrations shown in Table 11 and the medium composition shown in Table 12, each system in a 250 ml Erlenmeyer flask with a 50 ml working volume. These flasks were placed in an orbital shaker at 250 rpm and a temperature of 30° C. Samples were taken every 24 h for 3 days and the pH and cell concentrations were measured and recorded.
Cell growth was measured as optical density (OD) by measuring the absorbance of the washed cells at 610 nm with UV-vis spectrophotometer. A known amount of sample was centrifuged at 8000 rpm for 10 min and the supernatant was separated and saved for further analysis. Cell pellet was washed with DI water and centrifuge again under same conditions. Cell pellet was dispersed in water and the absorbance was measured at 610 nm.

[1] = test system: another strain of Debaryomyces hansenii; conditions: cited from earlier work
bacterial growth = assay: Preservatives against bacterial growth during soybean meal enzyme hydrolysis (pH profile); assay type: cell-based; conditions: preservative 2 g/L, 50° C., initial pH 4.8
Experimental: Systems that were considered in this section are identified on Table 16. All the systems contain 10 g of soybean meal. The enzyme hydrolysis was performed in 250 ml Erlenmeyer flasks which were agitated in orbital shaker at 250 rpm and at 50° C.
For control system, only water was added (no enzyme was added). For non-sterilized system, 10 g of soybean meal was mixed with 4 ml of enzyme broth and about 70 ml DI water. In the case of liquid autoclave system, 10 g of soybean meal was mixed with about 40 ml DI water and was autoclaved for 15 min. After autoclaving, an additional 30 ml of DI water (sterile) and 4 ml of enzyme broth were added. For vacuum autoclave systems, 10 g of soybean meal was autoclaved dry under vacuum cycle in the autoclave with no water for 15 and 45 min, respectively. After the autoclave cycle, 4 ml of enzyme broth and an additional 30 ml of DI water (sterile) was added. In case the sodium benzoate and sodium nitrite systems, 10 g of soybean meal was mixed with 2 g/L of either sodium benzoate or sodium nitrite, enzyme broth and DI water. There was no autoclaving or heating step used in these preservatives systems. The activity of the enzymes in the broth used for these experiments is shown on Table 17. The pH of all of the systems was adjusted to 4.8. Samples were taken periodically for the measurement of reducing sugars.

[2] = test system: bacterial growth present as spores in the soy flour; assay: Sodium benzoate concentration to inhibit bacterial growth in soy flour hydrolysis; assay type: cell-based; conditions: soy flour enzyme hydrolysis
Experimental: Sodium benzoate (Na.B) was used to inhibit the bacterial growth present as spores in the soy flour that was being used for enzyme hydrolysis enrichment of the soy proteins. Different sodium benzoate concentrations were studied to determine the best concentration of sodium benzoate to inhibit bacterial growth. It was determined that Na.B level of 2 g/L was effective. The hydrolysate byproduct of enzyme hydrolysis of the soy flour having different sugars was intended to be used for arabitol production using Debaryomyces hansenii. In order for this enzyme hydrolysate to be suitable for arabitol production, however, the sodium benzoate must be removed. Accordingly, the maximum concentration that could remain in the hydrolysate that is not inhibitory for D. hansenii growth was determined by this MIC of Na.B test with D. hansenii.

Compound | MIC (Debaryomyces hansenii; Debaryomyces hansenii, read-out: MIC against the growth of D. hansenii) [µg/mL] | Specific growth rate (μ), (Debaryomyces hansenii; benzoic acid 0.01 g/L) [h⁻¹] | effect on D. hansenii growth (Debaryomyces hansenii; benzoic acid 0.01 g/L) | Specific growth rate (μ), (Debaryomyces hansenii; benzoic acid 0.025 g/L) [h⁻¹] | Specific growth rate (μ), (Debaryomyces hansenii; benzoic acid 0.05 g/L) [h⁻¹] | Specific growth rate (μ), (Debaryomyces hansenii; benzoic acid 0.10 g/L) [h⁻¹] | Specific growth rate (μ), (Debaryomyces hansenii; benzoic acid 0.25 g/L) [h⁻¹] | cell growth measured as OD (Debaryomyces hansenii; benzoic acid 0.25 g/L) | MIC concentration [1] [µg/mL] | bacterial growth judged from pH profile (bacterial growth) | level effective to inhibit bacterial growth [2] [g/L]
O=C(O)c1ccccc1 [Benzoic acid] | 250 (≈ 2050 µM) | 0.089 | very little inhibitory effect | 0.082 | 0.079 | 0.075 | 0.022 | almost no cell growth | 400 to 500 | – | –
O=C([O-])c1ccccc1.[Na+] [sodium benzoate, Sodium benzoate] | – | – | – | – | – | – | – | – | – | absence of bacterial growth | 2
O=NO [sodium nitrite] | – | – | – | – | – | – | – | – | – | absence of bacterial growth | –
